Patent US4339390A, “Preferential immunoreactivity of syn-isomer of cortisol derivative” (Abbott Laboratories, priority 1981, dated 1982)

System: cortisol antibodies (antisera to cortisol-3-carboxymethyloxime-BSA)
Experiment: competitive radioimmunoassay, binding affinity curves on antibody-coated polystyrene beads
Design: species or system rabbit
Procedure: Female rabbits were immunized subcutaneously at multiple sites with 1 mg of cortisol-3-CMO-BSA conjugate, prepared according to method of example 1, in saline emulsified with complete Freund's adjuvant (Difco Laboratories, Detroit, Michigan) on weeks 1, 2, 3 and 4 with booster injections of […] of the immunogen being given at longer intervals according to the antibody titer. Blood was collected from the marginal ear vein after three months of immunization. The serum was harvested and frozen for future use.
Into appropriately labeled 12×75 mm plastic tubes containing polystyrene beads coated with cortisol antibodies generated according to this disclosure, was added 25 μl of standard serum, followed by 300 μl of radioactive assay solution containing a mixture of borate buffered saline, pH 8.8; 0.12% Triton X 100 and approximately 0.25 ng/ml of either the syn, anti or racemic mixture of ^125 I labeled tyrosine methyl ester derivative of cortisol-21-acetate-3-carboxymethyloxime. The reaction mixture was incubated with agitation at room temperature for one hour. The liquid contents of the tubes were aspirated and the radioactivity bound to the antibody coated beads was counted. The percent bound versus cortisol concentration was plotted. […] Knowing this preference, it would be advantageous in terms of sensitivity and specificity to employ only the syn isomer in assays for the determination of cortisol in biological fluids.

## COC(=O)[C@H](Cc1ccc(O)c([125I])c1)NC(=O)CO/N=C1\C=C2CC[C@@H]3[C@H]([C@@H](O)C[C@@]4(C)[C@H]3CC[C@]4(O)C(=O)COC(C)=O)[C@@]2(C)CC1 [I^125 syn isomer]
approx. 0.25 ng/ml tracer, room temperature, one hour, borate buffered saline pH 8.8, compared with anti isomer and racemic mixture
  affinity of antibody for labeled antigen conjugate (percent bound versus cortisol concentration): demonstrably greater affinity
Compared with I^125 -anti-isomer and I^125 -mixture (syn and anti)
  affinity constant calculated from slope of standard curves (FIG. 1): highest
Compared with labeled anti-isomer and racemic mixture
  immunoavidity of antisera for the labeled isomer: significant preference in immunoavidity
Standard curves
  sensitivity of the antibody for the labeled isomer (FIG. 1): increased sensitivity
